Earlier results, collected in patent US20200268651A1, “STABLE VITAMIN B12 LIQUID FORMULATIONS” (priority 2019, published 2020).

What was measured:
[1] = ascorbic acid (AH2), studied at pH 1.0-8.0
[2] = long-term use

people with reduced serum levels of vitamin B12 [2]	Molecule	pH of maximum rate of degradation in the presence of ascorbic acid [1]
–	C/C1=C2/[N-][C@H]([C@H](CC(N)=O)[C@@]2(C)CCC(=O)NC[C@@H](C)OP(=O)([O-])O[C@H]2[C@@H](O)[C@@H](n3cnc4cc(C)c(C)cc43)O[C@@H]2CO)[C@]2(C)N=C(/C(C)=C3N=C(/C=C4N=C1[C@@H](CCC(N)=O)C\4(C)C)[C@@H](CCC(N)=O)[C@]\3(C)CC(N)=O)[C@@H](CCC(N)=O)[C@]2(C)CC(N)=O.[Co+3].[OH-] [hydroxocobalamin]	5.0 pH
–	cyanocobalamin	5.0 pH
up to 30%	CN(C)C(=N)N=C(N)N [metformin]	–
